Columns and labels:
Format in all cases: cell-based, human
NF-κB = assay: Electrophoretic mobility shift assay (EMSA) of NF-κB DNA-binding activity in nuclear protein of cultured PBMC; settings: TNF-α (50 ng/ml) added alone 1 h before harvesting, untreated control = 1.0
Protocol: (§1) According to this exemplary embodiment, phyto-percolate and the flow-through/F4 were tested as they appeared in their original concentrations right off the columns, only diluted 1:20 and 1:100 as described herein. The culture of peripheral blood mononuclear cells (“PBMC”) is prepared from two vials of frozen PBMCs that were obtained from normal healthy human subjects by a commercial vendor, and were added to 2×10 ml medium and centrifuged. PBMCs were resuspended and cultured in RPMI1640/5% FBS for 24 h. (1 vial of frozen cells in 11 ml medium).
Treatment agents for this exemplary method comprise three agents: unseparated phyto-percolate (‘PAZ’), fraction 3 (‘F3’), fraction 4 (‘F4’). Treatment concentration for each was 1:20 and 1:100. An exemplary sample preparation method for each agent by dilution is as follows: First, a 1:10 dilution is prepared by combining 0.7 ml agent (PAZ, F3, or F4)+6.3 ml RPMI1640/5% FBS to obtain a total volume of 7 ml of a 1:10 solution. […]
Analysis of the effect of phyto-percolate or fractions isolated therefrom on the DNA-binding activity of NF-κB in the nuclear protein fractions of the cultured PBMC was determined as follows in this exemplary embodiment: approximately 18.26 mL of suspended PBMC were added to approximately 18 mL of culture medium and 2 mL of this cell suspension (2,718,000 cells in 2 mL) were seeded into each 60 mm culture dish. […]

IL-2 = assay: ELISA of IL-2 secretion by cultured PBMC; settings: PMA (with ionomycin) alone
Protocol: as §1
(§2) Treatment agents for this exemplary method comprise three agents: unseparated phyto-percolate (‘PAZ’), fraction 3 (‘F3’), fraction 4 (‘F4’). Treatment concentration for each was 1:20 and 1:100. […]
(§3) According to this exemplary embodiment, seeding, treatment, and detection are accomplished by the following steps. Two dishes of PBMCs were combined and the small amount of PBMCs was stained with 0.4% Trypan blue and the cell number of PBMCs was counted using known techniques.
(§4) In this embodiment, an enzyme linked immune-sorbent assay (“ELISA”) analysis of inflammatory cytokine secretion, (a protocol provided in a commercial kit for the parallel quantification of the production of human cytokines), was employed. […]

IFN-γ = assay: ELISA of IFN-γ secretion by cultured PBMC; settings: PMA (with ionomycin) alone
Protocol: as §1, §2, §3, §4

IL-17A = assay: ELISA of IL-17A secretion by cultured PBMC; settings: PMA (with ionomycin) alone
Protocol: as §1, §2, §3, §4

GM-CSF = assay: ELISA of GM-CSF secretion by cultured PBMC; settings: PMA (with ionomycin) alone
Protocol: as §1, §2, §3, §4

TNF-α = assay: ELISA of TNF-α secretion by cultured PBMC; settings: PMA (with ionomycin) alone
Protocol: as §1, §2, §3, §4

## TNF-α
NF-κB
  DNA-binding activity of NF-κB (relative level): ~2.0 relative unit

## CCCCCCCCCCCCCC(=O)O[C@@H]1[C@@H](C)[C@@]2(O)[C@@H](C=C(CO)C[C@]3(O)C(=O)C(C)=C[C@@H]23)[C@@H]2C(C)(C)[C@]12OC(C)=O [PMA, phorbol myristate acetate]
IL-2
  quantity of IL-2 produced: approximately 125 pg/100,000 cells
IFN-γ
  IFN-γ secreted: approximately 70 pg/100,000 cells
IL-17A
  production and secretion of IL-17A: approximately 3 pg/100,000 cells
GM-CSF
  production and secretion of GM-CSF: approximately 50 pg/100,000 cells
TNF-α
  production and secretion of TNF-α: approximately 50 pg/100,000 cells

From patent US10765732B2, “Compounds and methods for affecting cytokines” (Zivo Bioscience, Inc., priority 2013, dated 2020)
